Results on 23 compounds are retold here after ChEMBL document CHEMBL3232896, “Biological evaluation of new mimetics of annonaceous acetogenins: alteration of right scaffold by click linkage with aromatic functionalities” (Eur J Med Chem, 2014).

In series [1] the test system is HCT-116. In words: Antiproliferative activity against human HCT116 cells assessed as growth inhibition after 72 hrs by MTT assay. It counts as functional. Conditions: HCT-116, 72 h. Background: Tetrazolium dyes change colour on reduction, which living cells bring about.
Series [2] is described as follows: Antiproliferative activity against human HLF assessed as growth inhibition after 72 hrs by MTT assay. Conditions: HLF cells.
Series [3] in a line: Antiproliferative activity against human SGC7901 cells assessed as growth inhibition after 72 hrs by MTT assay. It counts as functional. Conditions: SGC-7901, 72 h.

With `CCCCCCCCCC[C@H](O)COCCOC[C@@H](O)CCCCCCCCCCCCC1=C[C@H](C)OC1=O`, the GI50 (as a rule, the concentration at which growth is held to half of that of the control) in series [1] was 0.181 µM; in series [3], 0.076 µM. The GI50 at 72 h in series [2] was found to be 27.8 µM.
In the same order, the values of `O[C@H](COCCOC[C@@H](O)Cc1cn(-c2ccc3c(c2)OCCO3)nn1)Cc1ccc(-c2ccccc2)cc1` are 16.5 µM, 6.4 µM and 5.2 µM.
In the same order, the values of `O[C@H](COCCOC[C@@H](O)Cc1cn(-c2cncnc2)nn1)Cc1ccc(-c2ccccc2)cc1` are above 100 µM, above 100 µM and above 100 µM.
In the same order, the values of `O[C@H](COCCOC[C@@H](O)Cc1cn(-c2cccs2)nn1)Cc1ccc(-c2ccccc2)cc1` are 33.4 µM, 33.4 µM and above 100 µM.
Take `O[C@H](COCCOC[C@@H](O)Cc1cn(-c2cncc3ccccc23)nn1)Cc1ccc(-c2ccccc2)cc1`: the GI50 came out at 17.8 µM in series [1] and 29.3 µM in series [3]. The GI50 at 72 h in series [2] stood at 10.8 µM.
The matching figures for `O[C@H](COCCOC[C@@H](O)Cc1cn(-c2cccnc2)nn1)Cc1ccc(-c2ccccc2)cc1`: 46.8 µM, 29.8 µM and above 100 µM.
The matching figures for `O[C@H](COCCOC[C@@H](O)Cc1cn(-c2ccc(N3CCOCC3)cc2)nn1)Cc1ccc(-c2ccccc2)cc1`: 8.3 µM, 20.7 µM and above 100 µM.
As for `O=C1COc2ccc(-n3cc(C[C@H](O)COCCOC[C@@H](O)Cc4ccc(-c5ccccc5)cc4)nn3)cc2N1`, the GI50 in series [1] was determined as 42.5 µM; in series [3], 15.2 µM. Besides, the GI50 at 72 h in series [2] was above 100 µM.
In the same order, the values of `O[C@H](COCCOC[C@@H](O)Cc1cn(-c2ccc3[nH]ccc3c2)nn1)Cc1ccc(-c2ccccc2)cc1` are 15.5 µM, 45.6 µM and above 100 µM.
The matching figures for `O=c1[nH]c2ccc(-n3cc(C[C@H](O)COCCOC[C@@H](O)Cc4ccc(-c5ccccc5)cc4)nn3)cc2s1`: 9.2 µM, 10.5 µM and 47.7 µM.
Regarding `O[C@H](COCCOC[C@@H](O)Cc1cn(Cc2ccc(Oc3ccccc3)cc2)nn1)Cc1ccc(-c2ccccc2)cc1`, the concentration for 50% growth inhibition (GI50) was found to be 3.4 µM in series [1] and 4.5 µM in series [3]. Also, in series [2], the GI50 at 72 h is 22.8 µM.
For `N#Cc1ccc(Cn2cc(C[C@H](O)COCCOC[C@@H](O)Cc3ccc(-c4ccccc4)cc3)nn2)cc1`, the 50% growth inhibitory concentration (GI50) in series [1] turned out to be 8.8 µM; in series [3], 7.7 µM. The GI50 at 72 h in series [2] came to 36.6 µM.
In the same order, the values of `O[C@H](COCCOC[C@@H](O)Cc1cn(Cc2ccc3ccccc3c2)nn1)Cc1ccc(-c2ccccc2)cc1` are 8.6 µM, 12.1 µM and 19.8 µM.
The matching figures for `O[C@H](COCCOC[C@@H](O)Cc1cn(Cc2cccc(-c3ccccc3)c2)nn1)Cc1ccc(-c2ccccc2)cc1`: 7.2 µM, 10.6 µM and above 100 µM.
The matching figures for `O[C@H](COCCOC[C@@H](O)Cc1cn(Cc2ccc(C(F)(F)F)cc2)nn1)Cc1ccc(-c2ccccc2)cc1`: 2.5 µM, 8.7 µM and 29.8 µM.
As for `O[C@H](COCCOC[C@@H](O)Cc1c[nH]nn1)Cc1ccc(-c2ccccc2)cc1`, the GI50 in series [1] and in series [3] was above 100 µM in each case. In series [2], the concentration for 50% growth inhibition (GI50) at 72 h was above 100 µM.
In the case of `COC1=C(OC)C(=O)C(CCCCCCCCCCn2cc(C[C@H](O)COCCOC[C@@H](O)Cc3ccc(-c4ccccc4)cc3)nn2)=C(C)C1=O`, the results for the GI50 in series [1] and in series [3] were 0.6 µM and 3.8 µM, respectively. Besides, the concentration for 50% growth inhibition (GI50) at 72 h in series [2] amounted to 18.3 µM.
In the same order, the values of `COC1=C(C)C(=O)C(CCCCCCCCCCn2cc(C[C@H](O)COCCOC[C@@H](O)Cc3ccc(-c4ccccc4)cc3)nn2)=C(C)C1=O` are 4 µM, 0.505 µM and 35.1 µM.
With `CC1=C(C)C(=O)C(CCCCCCCCCCn2cc(C[C@H](O)COCCOC[C@@H](O)Cc3ccc(-c4ccccc4)cc3)nn2)=C(C)C1=O`, the GI50 in series [1] was 0.9 µM; in series [3] it was 0.35 µM. The GI50 at 72 h in series [2] is above 25 µM.
The matching figures for `CC1=C(CCCCCCCCCCn2cc(C[C@H](O)COCCOC[C@@H](O)Cc3ccc(-c4ccccc4)cc3)nn2)C(=O)c2ccccc2C1=O`: 3 µM, 0.39 µM and 22.6 µM.
Consider `COC1=C(OC)C(=O)C(CCCCCCn2cc(C[C@H](O)COCCOC[C@@H](O)Cc3ccc(-c4ccccc4)cc3)nn2)=C(C)C1=O`, for which the GI50 worked out at 5 µM in series [1] and 16.6 µM in series [3]. Also, the GI50 at 72 h in series [2] was above 50 µM.
In the same order, the values of `COC1=C(OC)C(=O)C(CCCCCCCCCCCCCCCn2cc(C[C@H](O)COCCOC[C@@H](O)Cc3ccc(-c4ccccc4)cc3)nn2)=C(C)C1=O` are 1.5 µM, 2.49 µM and above 50 µM.
In the same order, the values of `COc1cccc2c1C(=O)c1c(O)c3c(c(O)c1C2=O)C[C@@](O)(C(=O)CO)C[C@@H]3O[C@H]1C[C@H](N)[C@H](O)[C@H](C)O1` [DOXORUBICIN] are 0.15 µM, 0.55 µM and 0.33 µM.
